Experimental findings from patent US7807422B2, “Production of flavonoids by recombinant microorganisms” (The Research Foundation of State University of New York, priority 2004, dated 2010) are described below.

One assay has as its system A. andraeanum DFR. Put plainly: Biotransformation assay of flavanones with recombinant E. coli harboring Anthurium DFR (flavanone reductase activity). It counts as cell-based, Anthurium andraeanum. To be noted: substrate 0.4 mg/mL, 30° C., 24 hours, HPLC.
In assay [1] the target is T1, Recombinant DFR A. thaliana (Arabidopsis thaliana, UniProt P51102).
T1 construct: We amplified full-length cDNA of various plant DFR open reading frames by PCR and RT-PCR; made in house; host or cells: E. coli TOP10F′ (crude lysate)
T1 sequence (P51102 1-382): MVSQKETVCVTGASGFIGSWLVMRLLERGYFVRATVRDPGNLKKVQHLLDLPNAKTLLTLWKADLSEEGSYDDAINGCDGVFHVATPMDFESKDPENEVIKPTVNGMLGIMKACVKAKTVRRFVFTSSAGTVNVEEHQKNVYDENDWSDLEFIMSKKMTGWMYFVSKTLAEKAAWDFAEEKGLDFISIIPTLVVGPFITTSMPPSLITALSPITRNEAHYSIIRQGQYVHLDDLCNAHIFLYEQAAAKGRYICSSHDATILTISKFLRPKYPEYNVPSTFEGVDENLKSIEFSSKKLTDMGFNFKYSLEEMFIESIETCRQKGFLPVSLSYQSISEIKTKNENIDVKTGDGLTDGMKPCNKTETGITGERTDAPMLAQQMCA
Put plainly: In vitro DFR/FNR enzymatic reaction, TLC analysis. To be noted: compound as substrate; pH 6.5, 30° C. The class given is biochemical. The method, then: (§1) Vector pTrcHis2-TOPO, either empty (control) or harboring the various cDNA sequences, was transformed into E. coli strain TOP10F′ (Invitrogen). Individual colonies were grown overnight in 3-mL Luria-Broth (LB) cultures with 100 μg/mL Ampicillin. The seed culture was used the following day to start a 50-mL main culture with an initial absorbance at 600 nm (A600) of 0.05. The main culture was left to grow at 37° C. until A600 reached 0.5-0.8. At that point, the inducer IPTG (isopropyl β-thiogalactoside) at a final concentration of 2 mM was added and the culture was left to grow for 4 hours at 30° C. Cells were harvested by centrifugation, resuspended in 5 mL of buffer (0.1 M K2HPO4/KH2PO4, pH 6.5), and lysed by either sonication or glass beads.
(§2) In vitro DFR and FNR enzymatic reactions were performed using 186 Bq of radiolabeled substrate and incubation was performed at 30° C. for 30 min−1 hour for DFR tests, and 30 min−2.5 hours for FNR tests. Ethyl acetate extraction was performed (twice) at the end of the incubation period, with 100 μL ethyl acetate. The organic phase was analyzed on a precoated TLC cellulose plate (Merck, Germany). The products, leucoanthocyanins and flavan-4-ols were separated from the respective substrates, dihydroflavonols and flavanones by chromatography in chloroform:acetic acid:water (10:9:1) system. The detection and quantification of radioactivity was performed using Fuji BAS1000 Bio-Imaging Analyzer. Protein content was determined using Lowry procedure with crystalline BSA as a standard. In vitro reaction products were identified by a previously published Rf values from in vitro reactions using heterologously expressed DFR proteins from Malus domestica (Punyasiri, et al., 2004, Arch. Biochem. Biophys., 431:22-30). Using TLC chromatography with chloroform:acetic acid:water (10:9:1), the Rf(×100) values for various flavonoids are DHK: 68; DHQ: 35; DHM: 11; NAR: 93; ERI: 61; LPg: 18; LCy: 8; LDp: 14; Apf: 45; Ltf: 18.
(§3) The in vitro reactions were performed using the optimal conditions (pH 6.5, 30° C.). […] No products were formed when using crude extract from E. coli harboring empty vector. DHQ and DHM were accepted as substrates by all seven recombinant enzymes, however, only the recombinant DFR enzymes derived from A. andraeanum, A. thaliana, I. nil, R. hybrida, and F. ananassa were able to catalyze the formation of LPg (Table 18). […] In addition, no LPg could be detected in assays using DFR from I. purpurea and L. hybrid even when the reaction period was extended and the amount of protein was increased up to 100 μg. In all cases, substrate specificity appeared to be independent of temperature or pH changes.

The test system of assay [2] is Recombinant DFR F. ananassa. Put plainly: In vitro DFR/FNR enzymatic reaction, TLC analysis. It counts as biochemical, Fragaria ananassa. To be noted: compound as substrate; pH 6.5, 30° C. The method, then: as §1, §2, §3
The test system of assay [3] is Recombinant DFR A. andraeanum. Put plainly: In vitro DFR/FNR enzymatic reaction, TLC analysis. The class given is biochemical, Anthurium andraeanum. To be noted: compound as substrate; pH 6.5, 30° C. The method, then: as §1, §2, §3
The subject of a further assay is Recombinant DFR I. nil. Put plainly: In vitro DFR/FNR enzymatic reaction, TLC analysis. To be noted: compound as substrate; pH 6.5, 30° C. The class given is biochemical, Ipomoea nil. The method, then:
as §1, §2, §3

For assay [4], the system named is Recombinant DFR R. hybrida. Nature of the assay: In vitro DFR/FNR enzymatic reaction, TLC analysis. To be noted: compound as substrate; pH 6.5, 30° C. It counts as biochemical, Rosa hybrida. The method, then:
as §1, §2, §3

Assay [5] has as its system Recombinant DFR L. hybrid. Put plainly: In vitro DFR/FNR enzymatic reaction, TLC analysis. The class given is biochemical, Lilium hybrid. To be noted: compound as substrate; pH 6.5, 30° C. The method, then: as §1, §2, §3
In assay [6] the test system is Recombinant DFR I. purpurea. Put plainly: In vitro DFR/FNR enzymatic reaction, TLC analysis. The class given is biochemical, Ipomoea purpurea. To be noted: compound as substrate; pH 6.5, 30° C. As to the method: as §1, §2, §3
The test system of assay [7] is flavanone biosynthesis in recombinant yeast strain INV-4G. Put plainly: Naringenin production from coumaric acid by INV-4G in the presence of apigenin (feedback inhibition). The class given is cell-based, S. cerevisiae. From the text:
Heterologous expression and fermentation. In order to assemble the two different flavone biosynthetic pathways, recombinant INVSc1 carrying plasmid Ycc4c181G was transformed with YC-FSI, YC-FSII or YC-FSII+CPR1 separately, yielding recombinant strains INV-4G+FSI, INV-4G+FSII, and INV-4G+FSII+CPR1. Yeast colonies harboring both plasmids were selected upon growth on SC agar plates lacking leucine and tryptophan (SC-Leu-Trp-). For flavone fermentation purposes, an individual recombinant yeast colony was grown overnight in 10-mL liquid SC-Leu-Trp-containing glucose at 30° C. with shaking. The following day, a portion of this culture was used to seed the main culture of SC-Leu-Trp-containing galactose and raffinose or MA-Leu-Trp-containing galactose and acetate to an Ab600 of 0.4. 0.5 mM of phenylpropanoid acid (cinnamic acid, p-coumaric acid, caffeic acid, ferulic acid) was then added to the main culture, and incubation was carried out at 30° C. with horizontal shaking for a maximum of 92 hours.
Considering that INV-4G+FSI produced more apigenin than INV-4G+FSII+CPR1, we tested the possibility that flavanone biosynthesis is feedback—inhibited by apigenin. For this purpose, recombinant yeast strain carrying only the four flavanone biosynthetic genes (INV-4G) was created by simultaneously inserting YP-4G and empty YCplac22 plasmid. INV-4G was then tested for the ability to generate naringenin from coumaric acid, in the presence of apigenin. […] In the presence of 1 mg/L apigenin, the production of naringenin at stationary phase was reduced by 14%.

For assay [8], the system named is E. coli JM109 carrying plasmid pK184. Nature of the assay: Effect of naringenin on E. coli growth. It counts as cell-based. As to the method: E. coli shake-flask experiments. The identification of compounds produced from recombinant E. coli strain JM109 carrying plasmid pDGFA184 was done in a similar way to what has already been described in the literature Hwang et al., 2003, Appl. Environ Microbiol., 69:2699-2706). More specifically, 3 ml of Luria-Broth rich medium containing 50 ug/ml kanamycin was inoculated with the recombinant strain and was incubated at 37° C. with vigorous shaking. The next day, 200 ml of LB containing 50 μg/ml kanamycin was inoculated with 1 ml of overnight culture and the culture was incubated at 37° C. with vigorous shaking at 300 rpm to an OD600 of approximately 0.6. Next, the inducer IPTG was added to the culture to a final concentration of 1 mM. In order to avoid the formation of inclusion bodies, after the addition of the inducer the culture was incubated at room temperature with vigorous shaking overnight. Next day the cells were harvested by centrifugation and washed twice with M9 minimal medium. The pellets were then resuspended in 200 ml M9 minimal medium containing 50 μg/ml kanamycin, 1 mM IPTG and various concentrations of naringenin. In order to measure growth curves, the cultures were left to grow at room temperature with vigorous shaking until late stationary phase was reached. For flavonoid extraction experiments, the cultures were left to grow at room temperature for 65 h, again with horizontal vigorous shaking.
We tested the effect of naringenin on E. coli growth by incubating cultures of JM109 carrying plasmid pK184 in M9 minimal medium (50 μg/ml kanamycin) in the presence of different concentrations of naringenin (0.1 mM, 0.3 mM, 0.5 mM and 1 mM).

Another assay has as its system E. coli BL21 Star. Put plainly: Effect of phenylpropanoid acids on E. coli growth (growth curves). To be noted: 2 mM p-coumaric acid, M9 rich medium. It counts as cell-based. As to the method:
Growth Curves. In order to investigate the effect of Phenylpropanoid acids on E. coli growth, E. coli BL21 Star was inoculated in 3 ml M9 liquid minimum medium and was left to grow at 37° C. overnight (preinoculum). The following day, 1 ml from the preinoculum was transferred to either 50 ml M9 minimal or Luria-Bertani (LB) rich liquid medium and p-coumaric acid, caffeic acid or cinnamic acid were added in the culture at different final concentrations (0 mM, 0.2 mM, 0.5 mM, 1 mM and 2 mM). Cell growth was monitored by measuring the absorbance at 600 nm (A600).
Phenylpropanoid acids reduce E. coli growth. We tested the effect of both p-coumaric acid and cinnamic acid on E. coli growth by incubating BL21 Star in M9 minimum medium and LB rich medium in the presence of different concentration of these compounds (0 mM, 0.05 mM, 0.1 mM, 0.15 mM, 0.2 mM, 1 mM, and 2 mM). […] For example, in the case of p-coumaric acid in […], the growth rate dropped from 0.28 h^−1 (control, 0 mM) to 0.18 h^−1 (2 mM). Similarly, for cinnamic acid the growth rate dropped from 0.27 h^−1 (control, 0 mM) to 0.17 h^−1 (2 mM) in M9 minimal medium.

Experimental for A. andraeanum DFR: Seed cultures of recombinant E. coli harboring Anthurium DFR were grown in LB with 100 μg/mL ampicillin. After 24 hours, the preinoculum was used to seed a 50-mL main culture which was incubated at 37° C. until A600 reached 0.5. IPTG and flavanone substrates were added at a final concentration of 2 mM and 0.4 mg/mL respectively, and incubation proceeded at 30° C. for 24 hours before harvesting. Flavonoid products in the culture supernatant were extracted twice with an equal volume of ethyl acetate. The organic solvent was collected and evaporated using a rotary evaporator, and the residue was dissolved in water.
The products were analyzed by HPLC using an Agilent HPLC 1100 series instrument with a diode array detector. HPLC was carried out using a reverse phase ZORBAX SB-C18 column (diameter 4.6 mm×150 mm) using an acetonitrile (solvent A) and water (solvent B) gradient at a flow rate of 1 ml/min. The HPLC program conditions used were as follows: 10% to 40% A (0-10 min), 40% to 60% A (10-15 min), 60% A (15-20 min). Absorbance at 280 nm was monitored in all cases. […] The UV maximum for the various flavan-4-ols synthesized were: 276 nm for 2,4-cis-flavan-4-ol; 275 nm for 2,4-trans-flavan-4-ol; 281 nm for 2,4-cis-7-hydroxyflavan-4-ol; and 279 nm for 2,4-trans-7-hydroxyflavan-4-ol.
Besides NAR and ERI, four other commercially available flavanones were tested as substrates using the recombinant A. andraeanum DFR enzyme. The biotransformation assay was chosen for that purpose, since these flavanones cannot be synthesized as radio-isotopomers.

Consider `COc1cc(OC)c2c(c1)OC(c1ccccc1)CC2=O` (stereo not shown) [5,7-dimethoxyflavanone], for which the “reduction to the corresponding flavan-4-ol” value in the assay on A. andraeanum DFR is reported as “not”.
Turning to `O=C1c2c(O)cc(O)cc2O[C@H](c2ccc(O)cc2)[C@H]1O` [DHK, dihydrokaempferol], the Specific activity in [1] stood at 0.002 pkatal/mg; in [2], 14 pkatal/mg; in assay [3] it was 21 pkatal/mg; in the assay on Recombinant DFR I. nil, 0.3 pkatal/mg; in assay [4] it was 0.4 pkatal/mg; in assay [5], 0 pkatal/mg. Moreover, in assay [6], the Specific activity is given as 0 pkatal/mg.
`O=C1c2c(O)cc(O)cc2O[C@H](c2cc(O)c(O)c(O)c2)[C@H]1O` [DHM, dihydromyricetin]: the Specific activity in assay [1] was 1.0 pkatal/mg; in assay [2] it was 1.4 pkatal/mg; in [3] it was 1.4 pkatal/mg; in the assay with Recombinant DFR I. nil it was 1.5 pkatal/mg; in assay [4], 1.3 pkatal/mg; in assay [5] it was 1.2 pkatal/mg. In assay [6], the Specific activity stood at 1.5 pkatal/mg.
Consider `O=C1c2c(O)cc(O)cc2O[C@H](c2ccc(O)c(O)c2)[C@H]1O` [DHQ, dihydroquercetin], for which the Specific activity in [1] came out at 1.3 pkatal/mg; in assay [2], 1.2 pkatal/mg; in [3] it was 1.4 pkatal/mg; in the assay with Recombinant DFR I. nil, 1.3 pkatal/mg; in assay [4], 1.0 pkatal/mg; in assay [5], 1.3 pkatal/mg. In addition, the Specific activity in assay [6] came to 1.2 pkatal/mg.
In the case of `O=C1C[C@@H](c2ccc(O)c(O)c2)Oc2cc(O)cc(O)c21` [ERI, eriodictyol], the Specific activity in assay [1] came out at 0.6 pkatal/mg; in [2], 0.6 pkatal/mg; in assay [3], 0.8 pkatal/mg; in the assay on Recombinant DFR I. nil, 0.6 pkatal/mg; in assay [4], 0.7 pkatal/mg; in assay [5] it was 0.6 pkatal/mg. Also, the Specific activity in assay [6] is reported as 0.6 pkatal/mg.
Consider `O=c1cc(-c2ccc(O)cc2)oc2cc(O)cc(O)c12` [apigenin], for which the “production of naringenin at stationary phase reduced by” value in assay [7] (1 mg/L apigenin) came out at 14%. In addition, the naringenin production decline entry in assay [7] (3 mg/L apigenin) is listed as “approximately 60%”; in assay [7] (10 mg/L apigenin), approximately 85%.
Take `O=C1CC(c2ccccc2)Oc2ccccc21` (stereo not shown) [flavanone]: in the assay with A. andraeanum DFR, the “reduction to the corresponding flavan-4-ol” value is on record as “able to reduce”.
In the case of `COc1ccc([C@@H]2CC(=O)c3c(O)cc(O)cc3O2)cc1O` [hesperetin], the “reduction to the corresponding flavan-4-ol” value with A. andraeanum DFR is “not”.
As to `O=C1C[C@@H](c2ccc(O)cc2)Oc2cc(O)cc(O)c21` [naringenin], the Specific activity was determined as 0 pkatal/mg in assay [1]; 0.5 pkatal/mg in [2]; 0.7 pkatal/mg in assay [3]; 0.3 pkatal/mg in the assay on Recombinant DFR I. nil; 0.4 pkatal/mg in assay [4]; 0 pkatal/mg in assay [5]. In addition, in assay [6], the Specific activity came to 0 pkatal/mg. Also, the “final dry cell weight concentration” value in assay [8] (1 mM naringenin in minimal medium, after 13 h cell growth) was 0.492 mg/mL. For the same compound, in assay [8] (1 mM naringenin vs control, 13 h), the “reduction in the final dry cell weight” value is on record as 16%. The “maximum specific growth rate” value in [8] (1 mM naringenin, M9 minimal medium) was 0.14 h⁻¹. The “OD600 (final cell mass)” value in assay [8] (1 mM naringenin, after 13 h of growth) is reported as 1.0.
In the assay on E. coli BL21 Star, `O=C(O)/C=C/c1ccc(O)cc1` [p-coumaric acid] registered a growth rate of 0.18 h⁻¹.
